ChEMBL document CHEMBL3228023, “Paradoxical effects of N-cyanoalkyl substituents upon the activities of several classes of opioids” (J Med Chem, 1979)
Counter-ions that a name gives are not always drawn. The source made the active and inactive calls. The rule behind the calls is not given here.

Assays:
[1] = Binding affinity to opiate receptor in mouse/rat NG108-15 hybrid cells
[2] = target: Opioid receptor (Rattus norvegicus, UniProt P33533+P34975+P33535); assay: Binding affinity to opiate receptor in rat brain homogenates; type: tissue-based
[3] = tested on: Mus musculus; assay: Antinociceptive activity in sc dosed mouse by Nilsen assay; type: functional
[4] = tested on: Mus musculus; assay: Antinociceptive activity in sc dosed mouse by Eddy-hot plate assay; type: functional
[5] = tested on: Mus musculus; assay: Ratio of morphine ED50 to compound ED50 for antinociceptive activity in sc dosed mouse by Eddy-hot plate assay; type: functional
[6] = tested on: Mus musculus; assay: Antinociceptive activity in Swiss-webster mouse at 1.6 umol/kg, sc by tail-flick assay; type: functional
[7] = Acute toxicity in sc dosed mouse; type: organism-based; conditions: in vivo
[8] = tested on: Mus musculus; assay: Antinociceptive activity in sc dosed mouse by Eddy-hot plate assay in presence of naloxone; type: functional, organism-based
[9] = tested on: Mus musculus; assay: Antinociceptive activity in Swiss-webster mouse at 1.6 umol/kg, sc by tail-flick assay in presence of 0.08 to 8.5 umol/kg naloxone; type: functional, organism-based
[10] = tested on: Rhesus monkey; assay: Acute toxicity in rhesus monkey assessed as salivation at 0.25 to 2 mg/kg by single-dose suppression test; type: organism-based, Macaca mulatta; set-up: dose 0.25-2 mg/kg; conditions: in vivo
[11] = tested on: Rhesus monkey; assay: Acute toxicity in rhesus monkey assessed as head tremors, covulsiona, ataxia at 2 mg/kg by single-dose suppression test; type: organism-based, Macaca mulatta; set-up: dose 2 mg/kg; conditions: in vivo
[12] = tested on: Rhesus monkey; assay: Acute toxicity in rhesus monkey assessed as CNS depression at 0.625 to 5 mg/kg by single-dose suppression test in presence of naloxone; type: organism-based, Macaca mulatta, Central nervous system; set-up: dose 0.625-5 mg/kg; conditions: in vivo
[13] = tested on: Rhesus monkey; assay: Acute toxicity in rhesus monkey assessed as CNS depression at 0.625 to 5 mg/kg by single-dose suppression test; type: organism-based, Macaca mulatta, Central nervous system; set-up: dose 0.625-5 mg/kg; conditions: in vivo
[14] = tested on: Rhesus monkey; assay: Acute toxicity in rhesus monkey assessed as ataxia and mild stupor at 1 to 2 mg/kg by single-dose suppression test; type: organism-based, Macaca mulatta; set-up: dose 1-2 mg/kg; conditions: in vivo
[15] = tested on: Rhesus monkey; assay: Narcotic antagonist activity in rhesus monkey at 1 to 2 mg/kg by precipitated withdrawal test; type: organism-based, Macaca mulatta; set-up: dose 1-2 mg/kg; conditions: in vivo
[16] = tested on: Mus musculus; assay: Ratio of morphine ED50 to compound ED50 for antinociceptive activity in sc dosed mouse by Nilsen assay; type: functional
[17] = tested on: Rhesus monkey; assay: Acute toxicity in rhesus monkey assessed as minimal CNS depression at 1.5 to 12 mg/kg by single-dose suppression test; type: organism-based, Macaca mulatta, Central nervous system; set-up: dose 1.5-12 mg/kg; conditions: in vivo
[18] = tested on: Mus musculus; assay: Antinociceptive activity in mouse at 100 mg/kg, sc by Eddy-hot plate assay; type: functional, organism-based; set-up: dose 100 mg/kg
[19] = tested on: Rhesus monkey; assay: Acute toxicity in rhesus monkey assessed as ataxia at 0.32 to 2.56 mg/kg by single-dose suppression test; type: organism-based, Macaca mulatta; set-up: dose 0.32-2.56 mg/kg; conditions: in vivo
[20] = tested on: Rhesus monkey; assay: Acute toxicity in rhesus monkey assessed as tremors at 0.64 to 2.56 mg/kg by single-dose suppression test; type: organism-based, Macaca mulatta; set-up: dose 0.64-2.56 mg/kg; conditions: in vivo
[21] = Therapeutic ratio of LD50 for sc dosed mouse to ED50 for antinociceptive activity in sc dosed mouse by Eddy-hot plate assay; conditions: in vivo
[22] = tested on: Rhesus monkey; assay: Narcotic antagonist activity in rhesus monkey at 0.32 to 1.28 mg/kg by precipitated withdrawal test; type: organism-based, Macaca mulatta; set-up: dose 0.32-1.28 mg/kg; conditions: in vivo
[23] = tested on: Rhesus monkey; assay: Acute toxicity in rhesus monkey assessed as rigidity at 2.56 mg/kg by single-dose suppression test; type: organism-based, Macaca mulatta; set-up: dose 2.56 mg/kg; conditions: in vivo
[24] = tested on: Rhesus monkey; assay: Physical dependence capacity in rhesus monkey at 0.16 to 2.56 mg/kg by single-dose suppression test; type: ADME, organism-based, Macaca mulatta; set-up: dose 0.16-2.56 mg/kg; conditions: in vivo
[25] = tested on: Rhesus monkey; assay: Acute toxicity in rhesus monkey assessed as exacerbation of withdrawal at 0.005 to 0.04 mg/kg by single-dose suppression test; type: organism-based, Macaca mulatta; set-up: dose 0.005-0.04 mg/kg; conditions: in vivo
[26] = tested on: Rhesus monkey; assay: Acute toxicity in rhesus monkey assessed as salivation at 0.005 to 0.02 mg/kg by single-dose suppression test; type: organism-based, Macaca mulatta; set-up: dose 0.005-0.02 mg/kg; conditions: in vivo
[27] = tested on: Rhesus monkey; assay: Narcotic antagonist activity in rhesus monkey […]; type: organism-based, Macaca mulatta; conditions: in vivo
[28] = tested on: Rhesus monkey; assay: Acute toxicity in rhesus monkey assessed as tremors at 36 mg/kg by single-dose suppression test; type: organism-based, Macaca mulatta; set-up: dose 36 mg/kg; conditions: in vivo
[29] = tested on: Rhesus monkey; assay: Acute toxicity in rhesus monkey assessed as minimal CNS depression at 1.5 to 36 mg/kg by single-dose suppression test; type: organism-based, Macaca mulatta, Central nervous system; set-up: dose 1.5-36 mg/kg; conditions: in vivo
[30] = tested on: Rhesus monkey; assay: Acute toxicity in rhesus monkey assessed as withdrawal signs at 96 mg/kg by single-dose suppression test; type: organism-based, Macaca mulatta; set-up: dose 96 mg/kg; conditions: in vivo
[31] = tested on: Rhesus monkey; assay: Acute toxicity in rhesus monkey assessed as withdrawal signs at 24 to 96 mg/kg by precipitated withdrawal test; type: organism-based, Macaca mulatta; set-up: dose 24-96 mg/kg; conditions: in vivo
[32] = tested on: Mus musculus; assay: Antinociceptive activity in mouse at 100 mg/kg, sc by Nilsen assay; type: functional, organism-based; set-up: dose 100 mg/kg
[33] = organism: Mus musculus
[34] = tested on: Rhesus monkey; assay: Acute toxicity in rhesus monkey at 10 to 40 mg/kg by single-dose suppression test; type: organism-based, Macaca mulatta; set-up: dose 10-40 mg/kg; conditions: in vivo
[35] = tested on: Rhesus monkey; assay: Acute toxicity in rhesus monkey at 3 to 12 mg/kg by single-dose suppression test; type: organism-based, Macaca mulatta; set-up: dose 3-12 mg/kg; conditions: in vivo
[36] = tested on: Rhesus monkey; assay: Physical dependence capacity in rhesus monkey at 12 mg/kg by single-dose suppression test; type: ADME, organism-based, Macaca mulatta; set-up: dose 12 mg/kg; conditions: in vivo
[37] = Mus musculus, sc, read-out: ED50

For `CN1CC[C@]23CCCC[C@H]2[C@H]1Cc1ccc(O)cc13.O=C(O)C(O)C(O)C(=O)O`, the EC50 [1] was 200 nM, the EC50 [2] was 700 nM and the ED50 [3, 37] was 0.54 µmol/kg. The ED50 [4, 37] was 0.49 µmol/kg.

In the case of `CN1CC[C@]23c4c5ccc(O)c4O[C@H]2[C@@H](O)C=C[C@H]3[C@H]1C5`, the EC50 [1] is reported as 1500 nM, the ED50 [3, 37] is reported as 4.1 µmol/kg and the ED50 [4, 37] is reported as 3.3 µmol/kg.

For `Cl.N#CCCN1CC[C@]23CCCCC2C1Cc1ccc(O)cc13.O` (stereo partly specified), the “Ratio ED50” value [5] was 50, the Activity [6] was 100% and the LD50 [7] was 534 mg/kg.

In the case of `N#CCCN1CC[C@]23CCCCC2C1Cc1ccc(O)cc13` (stereo partly specified), the Activity [8] is reported as “inactive” and the Activity [9] is reported as “inactive”.

For `C[C@H]1C2Cc3ccc(O)cc3C1(C)CCN2CCC#N` (mixture of isomers), the EC50 [2] was 3000 nM, the ED50 [3] was 0.31 µmol/kg and the Activity [10] was “Toxic”. The ED50 [4] was 0.26 µmol/kg and the Activity [11] was “Toxic”.

In the case of `C[C@H]1C2Cc3ccc(O)cc3C1(C)CCN2CC#N` (mixture of isomers), the EC50 [2] is reported as 20000 nM, the Activity [12] is reported as “Toxic” and the Activity [13] is reported as “Toxic”. It also gave an ED50 [3, 37] of 39.1 µmol/kg and an ED50 [4, 37] of 22.2 µmol/kg.

In the case of `C[C@H]1C2Cc3ccc(O)cc3C1(C)CCN2CCCC#N` (mixture of isomers), the EC50 [2] is reported as 4000 nM, the ED50 [3, 37] is reported as 1.5 µmol/kg and the Activity [14] is reported as “Toxic”. For the same compound, the Activity [15] was “Toxic” and the ED50 [4, 37] was 2.4 µmol/kg.

With `Br.C[C@H]1C2Cc3ccc(O)cc3C1(C)CCN2CCC#N` (mixture of isomers) the “Ratio ED50” value [16] was 12 and the “Ratio ED50” value [5] was 12.

For `C[C@H]1C2Cc3ccc(O)cc3C1(C)CCN2CCC#N` (single isomer, unassigned; (+)) [listing 1 of 2 here], the Activity [17] was “Toxic”.

With `C[C@H]1C2Cc3ccc(O)cc3C1(C)CCN2CCC#N` (single isomer, unassigned; (+)) [listing 2 of 2 here] the Activity [18] was “inactive”.

With `N#CCCN1CC[C@]23CCCCC2C1Cc1ccc(O)cc13` (single isomer, unassigned; (+)) the Activity [18] was “inactive”.

With `C[C@H]1C2Cc3ccc(O)cc3C1(C)CCN2CCC#N` (single isomer, unassigned; (-)) the Activity [19] was “Toxic”, the EC50 [1] was 80 nM and the EC50 [2] was 3000 nM. The Activity [20] was “Toxic”, the ED50 [3] was 0.03 µmol/kg and the selectivity ratio [21] was 13000. For the same compound, the Activity [22] was “Toxic”, the ED50 [4] was 0.11 µmol/kg and the Activity [23] was “Toxic”. The Activity [24] was “Non-toxic”.

`Br.C[C@H]1C2Cc3ccc(O)cc3C1(C)CCN2CCC#N` (single isomer, unassigned; (-)) showed an LD50 [7] of 489 mg/kg.

For `N#CCCN1CC[C@]23CCCCC2C1Cc1ccc(O)cc13` (single isomer, unassigned; (-)), the EC50 [1] was 15 nM, the EC50 [2] was 1500 nM and the Activity [25] was “Toxic”. The ED50 [3, 37] was 0.14 µmol/kg, the Activity [26] was “Toxic” and the selectivity ratio [21] was 23000. It also gave an ED50 [4, 37] of 0.07 µmol/kg.

In the case of `N#CCN1CC[C@]23CCCCC2C1Cc1ccc(O)cc13` (single isomer, unassigned; (-)), the EC50 [2] is reported as 7000 nM, the ED50 [3, 37] is reported as 13.2 µmol/kg and the ED50 [4, 37] is reported as 5.3 µmol/kg.

For `N#CCCN1CC[C@]23c4c5ccc(O)c4O[C@H]2[C@@H](O)C=CC3C1C5` (single isomer, unassigned; (-)), the Activity [27] was “Toxic”, the Activity [28] was “Toxic” and the EC50 [1] was 1000 nM. For the same compound, the EC50 [2] was 20000 nM, the Activity [29] was “Toxic” and the ED50 [3, 37] was 33 µmol/kg. It also gave an ED50 [4, 37] of 8.3 µmol/kg.

With `COc1ccc2c3c1O[C@H]1[C@@H](O)C=CC4C(C2)N(CCC#N)CC[C@@]341` (single isomer, unassigned; (-)) the EC50 [2] was 700000 nM, the Activity [30] was “Toxic” and the Activity [31] was “Toxic”.

In the case of `COc1ccc2c3c1O[C@H]1C(=O)CC[C@@]4(O)C(C2)N(CCC#N)CC[C@]314` (single isomer, unassigned; (-)), the Activity [32] is reported as “inactive”, the EC50 [2] is reported as 60000 nM and the ED50 [33] is reported as “inactive”. The Activity [34] was “Non-toxic”.

With `Br.CC1C2Cc3ccc(O)cc3C1(C)CCN2C` (single isomer, unassigned; (-)) the EC50 [1] was 400 nM, the EC50 [2] was 4000 nM and the ED50 [3, 37] was 1.5 µmol/kg. For the same compound, the ED50 [4, 37] was 2 µmol/kg.

In the case of `COc1ccc2c3c1O[C@H]1[C@@H](O)C=C[C@H]4[C@@H](C2)N(C)CC[C@@]341.COc1ccc2c3c1O[C@H]1[C@@H](O)C=C[C@H]4[C@@H](C2)N(C)CC[C@@]341.O.O=P(O)(O)O.O=P(O)(O)O` [CODEINE PHOSPHATE], the ED50 [3, 37] is reported as 20.4 µmol/kg, the Activity [35] is reported as “Toxic” and the ED50 [4, 37] is reported as 14.6 µmol/kg. The Activity [36] was “Toxic”.

Compound `CN1CC[C@]23c4c5ccc(O)c4O[C@H]2C(=O)CC[C@@]3(O)[C@H]1C5` [OXYMORPHONE HYDROCHLORIDE] has an ED50 [4, 37] of 0.27 µmol/kg.
